# Measurements published in US8883807B2, “Piperidinone carboxamide indane CGRP receptor antagonists” (Merck Sharp & Dohme Corp., priority 2010, dated 2014).
# Counter-ions that a name gives are not always drawn. Where no end group is shown, it is not given here.
# Columns and labels:
# middle meningeal artery = conditions: rats, electrical stimulation of the dura mater, prior administration; cited from earlier work
# facial blood flow [1] = conditions: rat, trigeminal ganglion stimulation; cited from earlier work
# [2] = biological target: T1, recombinant human CL receptor/RAMP1 (Homo sapiens, UniProt O60894+Q16602); assay: Recombinant Receptor Binding Assay (125I-hCGRP); conditions: exemplary compounds of the invention
# T1 construct: expressed in transfected cells; membranes
# T1 sequence (Q16602 23-461): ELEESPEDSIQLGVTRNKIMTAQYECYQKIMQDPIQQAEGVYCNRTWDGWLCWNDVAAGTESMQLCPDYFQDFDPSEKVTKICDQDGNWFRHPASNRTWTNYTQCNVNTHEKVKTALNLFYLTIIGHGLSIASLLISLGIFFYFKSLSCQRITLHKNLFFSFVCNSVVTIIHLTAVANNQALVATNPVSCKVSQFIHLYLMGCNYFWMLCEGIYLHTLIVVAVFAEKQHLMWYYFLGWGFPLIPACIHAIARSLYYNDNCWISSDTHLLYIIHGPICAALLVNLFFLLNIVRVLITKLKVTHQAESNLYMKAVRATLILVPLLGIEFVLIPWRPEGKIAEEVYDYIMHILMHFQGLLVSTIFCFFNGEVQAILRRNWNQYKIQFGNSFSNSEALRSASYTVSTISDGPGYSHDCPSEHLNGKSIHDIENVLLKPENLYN
# T1 sequence (O60894 27-148): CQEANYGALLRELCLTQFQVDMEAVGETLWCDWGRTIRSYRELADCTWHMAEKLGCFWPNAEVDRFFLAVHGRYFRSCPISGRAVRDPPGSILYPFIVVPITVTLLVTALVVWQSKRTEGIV
# Procedure: Recombinant Receptor: Human CL receptor (Genbank accession number L76380) was subcloned into the expression vector pIREShyg2 (BD Biosciences Clontech) as a 5′NheI and 3′ PmeI fragment. Human RAMP 1 (Genbank accession number AJ001014) was subcloned into the expression vector pIRESpuro2 (BD Biosciences Clontech) as a 5′NheI and 3′NotI fragment. HEK 293 cells (human embryonic kidney cells; ATCC #CRL-1573) were cultured in DMEM with 4.5 g/L glucose, 1 mM sodium pyruvate and 2 mM glutamine supplemented with 10% fetal bovine serum (FBS), 100 units/mL penicillin and 100 μg/mL streptomycin, and maintained at 37° C. and 95% humidity. Cells were subcultured by treatment with 0.25% trypsin with 0.1% EDTA in HBSS. Stable cell line generation was accomplished by co-transfecting 10 μg of DNA with 30 μg Lipofectamine 2000 (Invitrogen) in 75 cm^2 flasks. CL receptor and RAMP1 expression constructs were co-transfected in equal amounts. Twenty-four hours after transfection the cells were diluted and selective medium (growth medium+300 μg/mL hygromycin and 1 μg/mL puromycin) was added the following day. A clonal cell line was generated by single cell deposition utilizing a FACS Vantage SE (Becton Dickinson). Growth medium was adjusted to 150 μg/mL hygromycin and 0.5 μg/mL puromycin for cell propagation.
# Recombinant Receptor Binding Assay: Cells expressing recombinant human CL receptor/RAMP1 were washed with PBS and harvested in harvest buffer containing 50 mM HEPES, 1 mM EDTA and Complete™ protease inhibitors (Roche). The cell suspension was disrupted with a laboratory homogenizer and centrifuged at 48,000 g to isolate membranes. The pellets were resuspended in harvest buffer plus 250 mM sucrose and stored at −70° C. For binding assays, 20 μg of membranes were incubated in 1 mL binding buffer (10 mM HEPES, pH 7.4, 5 mM MgCl2, and 0.2% BSA) for 3 h at room temperature containing […] ^125I-hCGRP (GE Healthcare) and antagonist. The assay was terminated by filtration through 96-well GFB glass fiber filter plates (PerkinElmer) that had been blocked with 0.05% polyethyleneimine. The filters were washed 3 times with ice-cold assay buffer (10 mM HEPES, pH 7.4, and 5 mM MgCl2). Scintillation fluid was added and the plates were counted on a Topcount (Packard). Non-specific binding was determined and the data analysis was carried out with the apparent dissociation constant (Ki) determined by using a non-linear least squares fitting the bound CPM data to the equation below:
# [formula] Where Y is observed CPM bound, Ymax is total bound counts, Ymin is non specific bound counts, (Ymax−Ymin) is specific bound counts, % Imax is the maximum percent inhibition, % I min is the minimum percent inhibition, radiolabel is the probe, and the Kd is the apparent dissociation constant for the radioligand for the receptor as determined by hot saturation experiments.
# [3] = test system: acute attacks of migraine; conditions: clinical trials; cited from earlier work
# [4] = test system: headache induced by CGRP infusion; conditions: control group; cited from earlier work
# facial blood flow [5] = conditions: marmoset, electrical stimulation of the trigeminal ganglion; cited from earlier work
Molecule,Ki [2] [nM],also measured
"CGRP(8-37) (VTHRLAGLLSRSGGVVKNNFVPTNVGSKAF; ends and bridges not checked; UniProt P06881 90-119, looked up, fragment) [a peptide CGRP receptor antagonist]",,effect on increase in diameter of the middle meningeal artery (middle meningeal artery): blocked; effect on increased facial blood flow (facial blood flow [1]): inhibited
C[C@@H]1[C@H](c2ccccc2)C[C@H](NC(=O)c2ccc3c(c2)C[C@@]2(C3)C(=O)Nc3ncc(C#N)cc32)C(=O)N1CC(F)(F)F [Example 16],0.13,
O=C(N[C@H]1C[C@@H](c2cccc(F)c2F)CN(CC(F)(F)F)C1=O)c1ccc2c(c1)C[C@@]1(C2)C(=O)Nc2ncccc21 [Example 5],0.061,
CC(C)CN1C[C@H](c2cccc(F)c2F)C[C@H](NC(=O)c2ccc3c(c2)C[C@@]2(C3)C(=O)Nc3ncccc32)C1=O [Example 14],0.032,
O=C(N[C@H]1C[C@@H](c2c(Cl)cccc2Cl)CN(CC(F)(F)F)C1=O)c1ccc2c(c1)C[C@@]1(C2)C(=O)Nc2ncccc21 [Example 9],0.24,
O=C(N[C@@H]1CC[C@@H](c2cccc(F)c2F)CN(CC(F)(F)F)C1=O)N1CCC(n2c(=O)[nH]c3ncccc32)CC1 [telcagepant],,effectiveness in treating acute attacks of migraine [3]: antimigraine effectiveness
"C[C@@H]1[C@H](c2cccc(Cl)c2)C[C@H](NC(=O)c2ccc3c(c2)C[C@@]2(C3)C(=O)Nc3ncccc32)C(=O)N1CC(F)(F)F [Example 2, (2R)-N-[(3S,5S,6R)-5-(3-Chlorophenyl)-6-methyl-2-oxo-1-(2,2,2-trifluoroethyl)piperidin-3 yl]-2′-oxo-1,1′,2′,3-tetrahydrospiro[indene-2,3′-pyrrolo[2,3-b]pyridine]-5-carboxamide]",0.17,
NCCCC[C@H](NC(=O)[C@@H](Cc1cc(Br)c(O)c(Br)c1)NC(=O)N1CCC(N2Cc3ccccc3NC2=O)CC1)C(=O)N1CCN(c2ccncc2)CC1 [BIBN4096BS],,effectiveness in treating acute attacks of migraine [3]: effective in treating acute attacks of migraine; prevention of headache induced by CGRP infusion [4]: able to prevent headache induced by CGRP infusion; effect on increase in facial blood flow (facial blood flow [5]): blocked
C[C@@H]1[C@H](c2c(F)c(F)cc(F)c2F)C[C@H](NC(=O)c2ccc3c(c2)C[C@@]2(C3)C(=O)Nc3ncncc32)C(=O)N1CC(F)(F)F [Example 20],0.021,
O=C(N[C@H]1C[C@@H](c2cc(F)cc(F)c2)CN(CC(F)(F)F)C1=O)c1ccc2c(c1)C[C@@]1(C2)C(=O)Nc2ncccc21 [Example 4],0.18,
"C[C@@H]1[C@H](c2cc(F)cc(F)c2F)C[C@H](NC(=O)c2ccc3c(c2)C[C@@]2(C3)C(=O)Nc3ncccc32)C(=O)N1CC(F)(F)F [Example 3, (2R)-N-1-[(3S,5S,6R)-6-Methyl-2-oxo-1-(2,2,2-trifluoroethyl)-5-(2,3,5-trifluorophenyl)piperidin-3-yl]-2′-oxo-1,1′,2′,3-tetrahydrospiro[indene-2,3′-pyrrolo[2,3-b]pyridine]-5-carboxamide hydrochloride]",0.039,
"C[C@@H]1[C@H](c2ccccc2)C[C@H](NC(=O)c2ccc3c(c2)C[C@@]2(C3)C(=O)Nc3ncccc32)C(=O)N1CC(F)(F)F [Example 1, (2R)-N-[(3S,5S,6R)-6-Methyl-2-oxo-5-phenyl-1-(2,2,2-trifluoroethyl)piperidin-3-yl]-2′-oxo-1,1′,2′,3-tetrahydrospiro[indene-2,3′-pyrrolo[2,3-b]pyridine]-5-carboxamide]",0.079,
C[C@@H]1[C@H](c2c(F)ccc(F)c2F)C[C@H](NC(=O)c2ccc3c(c2)C[C@@]2(C3)C(=O)Nc3ncccc32)C(=O)N1CC(F)(F)F [Example 12],0.025,
